Assays:
[1] = test system: human complement produced by human hepatocytes; assay: Complement inhibitor given to human-hepatocyte chimeric mice: survival; type: in vivo, mouse; settings: 200 μl of 2 mg/ml, every 2 days to twice a day; human albumin in blood exceeded 3 mg/ml
Procedure: Also, human hepatocytes in the mouse liver tissue were stained immunologically using an anti-human complement C3 antibody, and presence of a complement C3 in human hepatocytes was confirmed. Therefore, 200 μl of a complement inhibitor (Futhan®) with concentration of 2 mg/ml was administered into the mouse with increased human albumin concentration. Administration frequency was started from once per 2 days. Change in body weight was checked every day, and administration frequency or dose was increased when decrease in body weight was observed (FIG. 3). As the results, the mice with human albumin concentration in blood over 2 mg/ml received the complement inhibitor (Futhan®) every 2 days, and those over 4 mg/ml received every day, and further, those over 6 mg/ml received twice a day (FIG. 3).

[2] = test system: T1, CYP2C9; assay: Diclofenac 4-hydroxylation activity in mouse liver microsomes; type: in vivo; settings: liver microsomes of uPA(-/-)/SCID mouse
T1 construct: to check activity of CYP2C9 in the microsomal fraction sampled from a mouse; from tissue; host or cells: liver microsomal fraction of human-hepatocyte-transplanted chimeric mice (uPA/SCID); donor (human) microsome as comparison
Procedure: Further, to check activity of CYP2C9 in the microsomal fraction sampled from a mouse, diclofenac 4-hydroxylation activity was measured by adding diclofenac to the microsome. In consequence, diclofenac 4-hydroxylation activity was little detected in the uPA(−/−)/SCID mouse, and induction of activity by administration of a complement inhibitor was not observed also. […] In a chimeric mouse with 89% of replacement ratio, diclofenac 4-hydroxylation activity was confirmed higher than that of donor (human) microsome (FIG. 9).

[3] = test system: human complement (hC3a); assay: Human complement (hC3a) in blood of chimeric mice by ELISA; type: in vivo, mouse; settings: administered vs non-administered chimeric mice
Procedure: Further, concentration of the human complement (hC3a) in blood of chimeric mice administered or non-administered with the complement inhibitor (Futhan®) was measured by ELISA method. In consequence, it was confirmed that hC3a concentration was lower in chimeric mice administered with the complement inhibitor compared with non-administered mice (FIG. 4).

[4] = test system: normalized mouse hepatocytes; assay: Growth inhibition of normalized mouse hepatocytes in uPA-Tg/SCID mice; type: in vivo; settings: 30 or 60 mg/kg intraperitoneally
Procedure: Retrorsine was inoculated intraperitoneally in the amount of 30 or 60 mg/kg into a uPA-Tg(+/−)/SCID mouse and a uPA-Tg(+/+)/SCID mouse. As the result, number of colonies of normalized hepatocytes caused by deletion of introduced uPA gene (uPA-Tg(−/−)/SCID) was reduced in the uPA-Tg(+/−)/SCID mouse (FIG. 12).

[5] = test system: human hepatocytes; assay: Human albumin in blood of chimeric mice (ELISA); type: in vivo; settings: 60 mg/kg intraperitoneally before transplantation; compared with chimeric uPA-Tg(+/+)/SCID mouse
Procedure: From 1 week after transplantation of human hepatocytes, 10 μl blood samples were taken from the tail of a mouse once or twice per a week, and concentration of human albumin was measured using Quantitative ELISA immunoassay (Bethyl Laboratories Inc.).
Then, the uPA-Tg(+/−)/SCID and the uPA-Tg(+/+)/SCID mice, which were inoculated with 60 mg/kg of retrorsine intraperitoneally, were transplanted with human hepatocytes similarly as in Example 1 to prepare chimeric mice.
As to one chimeric mouse prepared in Example 1, at 100 days after transplantation of human hepatocytes, an anti-mouse Fas antibody which leads mouse hepatocytes to apoptosis by reaction with a Fas antigen thereof was inoculated (0.2 μg/g body weight) into the abdominal cavity of said chimeric mouse twice at the interval of 1 week.

T1 sequence (P11712 whole entry): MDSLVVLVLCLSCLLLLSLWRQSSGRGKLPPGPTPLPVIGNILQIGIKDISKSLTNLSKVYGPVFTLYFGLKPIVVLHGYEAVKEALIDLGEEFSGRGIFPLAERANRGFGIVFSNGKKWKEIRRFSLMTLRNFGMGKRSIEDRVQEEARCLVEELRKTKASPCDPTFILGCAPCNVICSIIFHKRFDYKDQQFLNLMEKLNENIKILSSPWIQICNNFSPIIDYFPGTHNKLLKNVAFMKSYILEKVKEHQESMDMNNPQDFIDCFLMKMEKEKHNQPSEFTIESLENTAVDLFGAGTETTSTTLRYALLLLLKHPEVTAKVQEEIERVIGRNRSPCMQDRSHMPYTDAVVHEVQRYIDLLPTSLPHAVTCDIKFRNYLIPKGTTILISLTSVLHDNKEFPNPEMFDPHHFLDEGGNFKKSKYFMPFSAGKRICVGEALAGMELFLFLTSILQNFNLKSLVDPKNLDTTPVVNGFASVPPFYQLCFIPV

Compound	survival of chimeric mouse [1]	induction of diclofenac 4-hydroxylation activity [2]	hC3a concentration in blood [3]	number of colonies of normalized hepatocytes caused by deletion of introduced uPA gene [4]	human albumin concentration in blood of chimeric uPA-Tg(+/-)/SCID mouse [5]
N=C(N)c1ccc2cc(OC(=O)c3ccc(N=C(N)N)cc3)ccc2c1 [Futhan, nafamostat mesilate]	could live for long period	not observed	lower	–	–
retrorsine	–	–	–	reduced	increased to the same level

Source: patent US7560279B2, “Method of proliferating human hepatocytes and method for obtaining human hepatocytes” (Hiroshima Industrial Promotion Organization, priority 2002, dated 2009)
